# Test results from ChEMBL document CHEMBL1158910, “The gastric cytoprotective effect of several sesquiterpene lactones” (J Nat Prod, 1990).
# Activity calls are given as the source filed them. The calls are words filed in the database; no cut-off is given here.
# What was measured:
# Rattus norvegicus [1] = assay: Antiulcerogenic activity in Wistar rat assessed as cytoprotection against ethanol-induced gastric lesions administered 60 mins before ethanol challenge; type: functional, organism-based; details: Stomach
# Rattus norvegicus [2] = assay: Antiulcerogenic activity in Wistar rat assessed as cytoprotection against ethanol-induced gastric lesions at 40 mg/kg administered 60 mins before ethanol challenge; type: functional, organism-based; parameters: dose 40 mg/kg; details: Stomach
SMILES,Activity (Rattus norvegicus [1]),Activity (Rattus norvegicus [2])
C=C1C(=O)O[C@@H]2[C@H]1CC[C@H](C)[C@@]1(O)C=CC(=O)[C@@]21C,Dose-dependent effect,Active
C=C1C(=O)O[C@H]2[C@H](O)[C@@H](C)[C@@H]3[C@@H](OC(=O)/C(C)=C\C)C[C@H](O)[C@@]3(C)[C@H](OC(C)=O)[C@H]12,,Active
C=C1C(=O)O[C@H]2[C@H]1CCC(C)=C1C[C@H]3O[C@@]3(C)[C@@H]12,,Active
CC1=CC(=O)C2=C(C)CC[C@@H]3[C@H](OC(=O)[C@H]3C)[C@@H]12,,inactive
C=C1C(=O)O[C@@H]2C[C@@H](C)[C@@H]3C=CC(=O)[C@@]3(C)[C@@H](O)[C@H]12,,Active
C=C1C(=O)O[C@H]2C[C@@H](C)[C@@H]3C=CC(=O)[C@@]3(C)[C@H](O)[C@H]12,,Active
C=C1C(=O)O[C@@H]2[C@H]3C(C)=CC(=O)C3=C(C)CC[C@@H]12,Dose-dependent effect,Active
C=C1C(=O)O[C@@H]2[C@H]3C(=C)[C@@H](O)C[C@H]3C(=C)C[C@H](OC(=O)/C(C)=C\C)[C@@H]12,,Active
